Assay results from patent publication US5112615A, “Soluble hirudin conjugates” (New England Deaconess Hospital Corporation, priority 1990, dated 1992).

Legend:
[1] = tested on: thrombin-mediated platelet aggregation; assay: Inhibition of thrombin-mediated platelet aggregation and simultaneous ATP release (whole blood platelet aggregometer); type: cell-based; settings: Thrombin 0.1 NIHU
Description: Investigation of the biologic activity of hirudin covalently linked to albumin is examined by inhibiting thrombin-mediated platelet aggregation. A whole blood platelet aggregometer (Chronolog Corp., Havertown, PA) is used to measure platelet aggregation and simultaneous ATP release. Platelet aggregation is selected to quantify inhibition of thrombin events other than fibrin formation.

blood = assay: Thrombin time of blood containing inhibitor; settings: 0.2 ATU/ml blood sample
Experimental: In addition, hirudin conjugated to a stable, soluble molecule increases hirudin stability in the bloodstream. For example, 0.1 anti-thrombin units (ATU) of hirudin conjugate standard/ml of blood increases normal thrombin time to 45 seconds. A blood sample containing 0.2 ATU of unconjugated hirudin/ml increases patient thrombin time to 90 seconds. Using this knowledge, the amount of hirudin in a patient's plasma can be calculated to be 0.15 ATU if the patient's thrombin time is determined to be 68 seconds.

thrombin = thrombin (Homo sapiens, UniProt P00734); assay: Kinetic evaluation of thrombin inhibition (Lineweaver-Burke and Dixon plot analyses); type: biochemical
Description: Using a known amount of thrombin, a standard curve is constructed with known amount of hirudin or hirudin analog by adding hirudin to thrombin, and measuring residual thrombin activity using […] substrate S-2238. Thrombin inhibition by derivatized hirudin (hirudin-SPDP) or immobilized hirudin (the polyethylene terphthalate material with immobilized hirudin) is then compared to nonderivatized hirudin values by equating ED50 values using 10 NIH units/ml thrombin, and measuring residual thrombin activity.
Peak 3 conjugate material (shown in FIG. 4C and lane A in FIG. 5A) is evaluated by kinetic analysis. Kinetic evaluation of the ability of the peak 3 conjugate to inhibit thrombin activity is compared to hirudin alone. […] These determinations are made by Lineweaver-Burke and Dixon plot analyses. The inhibitor constant for hirudin is determined to be 1.7×10^-12. The inhibitor constant for the conjugate is 1.8×10^-11. There is a 10-fold loss in binding affinity when comparing the Ki values of hirudin to the conjugate, respectively. In a biologic or physiologic system, the different abilities of hirudin and conjugate to inhibit thrombin are insignificant.

hirudin
% Inh. ATP Release ([1]; inhibitor 0.12 ATU): 56% | % Inh. Plate. Aggreg. ([1]; inhibitor 0.12 ATU): 52% | ATP Release ([1]; inhibitor 0.12 ATU): 0.60 µM | Aggreg. OHMS/6 min. ([1]; inhibitor 0.12 ATU): 15.7 OHMS/6 min. | % Inh. ATP Release ([1]; inhibitor 1.15 ATU): 100% | % Inh. Plate. Aggreg. ([1]; inhibitor 1.15 ATU): 100% | ATP Release ([1]; inhibitor 1.15 ATU): 0 µM | Aggreg. OHMS/6 min. ([1]; inhibitor 1.15 ATU): 0 OHMS/6 min. | thrombin time (blood): 90 s | type of inhibition (thrombin): noncompetitive inhibitor of a linear mixed type
